By IC50 is commonly meant the point on the concentration scale where inhibition reaches its midpoint.

The record followed here is ChEMBL document CHEMBL4393698, “Exploring the effect of chirality on the therapeutic potential of N-alkyl-deoxyiminosugars: anti-inflammatory response to Pseudomonas aeruginosa infections for application in CF lung disease” (Eur J Med Chem, 2019).

Molecules are shown by their SMILES. The source made the active and inactive calls. The rule behind the calls is not given here.

The test system of series [1] is CuFi-1. In words: Induction of apoptosis in human CuFi1 cells incubated for 48 hrs by Muse Annexin V based cell counter assay. As to conditions: cufi-1, 48 h.
Series [2] relates to CuFi-1. The experiment in a line: Cytotoxicity against human CuFi1 cells assessed as reduction in cell viability incubated for 48 hrs by Muse cell analyser method. As to conditions: cufi-1, 48 h. It counts as cell-based.
Series [3] has as its system CuFi-1. The experiment in a line: Anti-inflammatory activity in human CuFi1 cells assessed as reduction in Pseudomonas aeruginosa PAO1-induced IL-8 mRNA expression level at 0.1 uM pretreated for 1 hr followed by Pseudomonas aeruginosa PAO1 challenge and measured after 4 hrs by RT-PCR analysis relative to control. It counts as functional. Details: scale not given: the % may be the effect or the level left.

In series [4] the test system is CuFi-1. The experiment in a line: Anti-inflammatory activity in human CuFi1 cells assessed as reduction in Pseudomonas aeruginosa PAO1-induced IL-8 mRNA expression level pretreated for 1 hr followed by Pseudomonas aeruginosa PAO1 challenge and measured after 4 hrs by RT-PCR analysis. The format is functional, cell-based.
Series [5] deals with CuFi-1. In words: Anti-inflammatory activity in human CuFi1 cells assessed as reduction in Pseudomonas aeruginosa PAO1-induced IL-8 mRNA expression level pretreated for 1 hr followed by Pseudomonas aeruginosa PAO1 challenge and measured after 4 hrs by RT-PCR analysis relative to control. The format is functional.
The nature of series [6]: Toxicity in Pseudomonas aeruginosa PAO1 infected C57Bl/6NCr mouse assessed as change in body weight at 10 to 100 mg/kg, po administered via gavage pretreated for 1 to 24 hrs followed by Pseudomonas aeruginosa PAO1 challenge and measured after 6 hrs. It counts as organism-based. As to conditions: in vivo.
A further series is filed under the species Homo sapiens. The experiment in a line: Anti-inflammatory activity in human Bronchial epithelial cells assessed as reduction in Pseudomonas aeruginosa PAO1-induced IL-8 mRNA expression level at 10 nM pretreated for 1 hr followed by Pseudomonas aeruginosa PAO1 challenge and measured after 4 hrs by RT-PCR analysis relative to control. The format is functional.

Series [7] deals with Pseudomonas aeruginosa. The experiment in a line: Anti-inflammatory activity in Pseudomonas aeruginosa PAO1 infected C57Bl/6NCr mouse assessed as reduction in amount of neutrophils in lungs at 100 mg/kg, po administered via gavage pretreated for 1 to 24 hrs followed by Pseudomonas aeruginosa PAO1 challenge and measured after 6 hrs. It counts as functional, organism-based.
The subject of series [8] is Pseudomonas aeruginosa. The experiment in a line: Anti-inflammatory activity in Pseudomonas aeruginosa PAO1 infected C57Bl/6NCr mouse assessed as increase in alveolar macrophages in lungs at 10 mg/kg, po administered via gavage pretreated for 1 to 24 hrs followed by Pseudomonas aeruginosa PAO1 challenge and measured after 6 hrs. The format is functional, organism-based.

The subject of series [9] is Pseudomonas aeruginosa. The experiment in a line: Anti-inflammatory activity in Pseudomonas aeruginosa PAO1 infected C57Bl/6NCr mouse assessed as reduction in bacterial CFU in lungs at 10 mg/kg, po administered via gavage pretreated for 1 to 24 hrs followed by Pseudomonas aeruginosa PAO1 challenge and measured after 6 hrs. The format is functional, organism-based.
Series [10] can be described thus: Toxicity in Pseudomonas aeruginosa PAO1 infected C57Bl/6NCr mouse assessed as change in body weight at 100 mg/kg, po administered via gavage pretreated for 1 to 24 hrs followed by Pseudomonas aeruginosa PAO1 challenge and measured after 6 hrs. It counts as organism-based. The note with it: in vivo.
In series [11] the test system is Pseudomonas aeruginosa. The experiment in a line: Anti-inflammatory activity in Pseudomonas aeruginosa PAO1 infected C57Bl/6NCr mouse assessed as reduction in bacterial CFU in BAL at 10 mg/kg, po administered via gavage pretreated for 1 to 24 hrs followed by Pseudomonas aeruginosa PAO1 challenge and measured after 6 hrs. The format is functional, organism-based.

The next series deals with T1, Beta-glucosidase (Homo sapiens, UniProt Q9HCG7).
T1 sequence (Q9HCG7 whole entry): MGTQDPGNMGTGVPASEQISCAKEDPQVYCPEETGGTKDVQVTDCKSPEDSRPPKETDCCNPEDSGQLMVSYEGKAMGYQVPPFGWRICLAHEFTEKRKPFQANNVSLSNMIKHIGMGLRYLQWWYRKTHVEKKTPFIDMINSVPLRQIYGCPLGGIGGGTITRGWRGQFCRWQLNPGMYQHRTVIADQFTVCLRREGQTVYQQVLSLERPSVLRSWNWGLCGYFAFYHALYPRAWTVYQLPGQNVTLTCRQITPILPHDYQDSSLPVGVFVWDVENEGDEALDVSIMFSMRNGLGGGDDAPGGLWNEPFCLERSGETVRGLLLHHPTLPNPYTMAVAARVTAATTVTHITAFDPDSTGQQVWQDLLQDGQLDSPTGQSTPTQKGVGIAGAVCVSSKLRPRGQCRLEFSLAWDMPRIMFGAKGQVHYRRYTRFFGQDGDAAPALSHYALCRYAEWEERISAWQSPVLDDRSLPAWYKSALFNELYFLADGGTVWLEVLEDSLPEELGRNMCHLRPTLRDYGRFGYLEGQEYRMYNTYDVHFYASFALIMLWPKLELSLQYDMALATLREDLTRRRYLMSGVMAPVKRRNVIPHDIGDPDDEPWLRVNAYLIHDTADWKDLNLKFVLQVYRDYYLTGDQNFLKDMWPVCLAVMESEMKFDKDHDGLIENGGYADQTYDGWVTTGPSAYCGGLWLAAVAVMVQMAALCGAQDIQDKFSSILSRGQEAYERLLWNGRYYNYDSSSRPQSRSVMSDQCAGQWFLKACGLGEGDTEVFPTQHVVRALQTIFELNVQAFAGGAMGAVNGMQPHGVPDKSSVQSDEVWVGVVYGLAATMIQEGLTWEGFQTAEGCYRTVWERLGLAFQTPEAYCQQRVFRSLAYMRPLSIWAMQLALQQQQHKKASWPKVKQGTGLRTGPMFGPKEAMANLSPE

Series [12] addresses T2, Beta-glucosidase (Homo sapiens) (UniProt Q9HCG7).
T2 sequence (whole entry): T1 sequence (Q9HCG7 whole entry)
As to conditions: SH-SY5Y, 1 nM.

Series [13] concerns the target T3, Lysosomal acid glucosylceramidase (Homo sapiens) (UniProt P04062).
T3 sequence (whole entry): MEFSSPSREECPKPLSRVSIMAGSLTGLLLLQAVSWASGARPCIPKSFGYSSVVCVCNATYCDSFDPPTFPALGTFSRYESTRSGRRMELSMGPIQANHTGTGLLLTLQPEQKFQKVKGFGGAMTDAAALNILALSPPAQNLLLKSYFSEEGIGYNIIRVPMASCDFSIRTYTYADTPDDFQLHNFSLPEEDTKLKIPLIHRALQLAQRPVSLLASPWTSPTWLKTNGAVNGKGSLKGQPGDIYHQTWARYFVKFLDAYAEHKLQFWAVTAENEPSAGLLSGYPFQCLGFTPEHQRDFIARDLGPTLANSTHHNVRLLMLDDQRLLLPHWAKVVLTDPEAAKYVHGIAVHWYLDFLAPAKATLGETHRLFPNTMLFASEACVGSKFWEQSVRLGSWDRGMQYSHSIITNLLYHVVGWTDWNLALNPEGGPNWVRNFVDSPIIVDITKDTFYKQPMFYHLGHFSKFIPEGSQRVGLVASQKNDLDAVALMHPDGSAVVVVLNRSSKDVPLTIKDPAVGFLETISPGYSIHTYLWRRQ
As to conditions: SH-SY5Y, 1 nM.

The subject of series [14] is Pseudomonas aeruginosa. In words: Anti-inflammatory activity in Pseudomonas aeruginosa PAO1 infected C57Bl/6NCr mouse assessed as reduction in bacteria detected in lungs dosed orally via gavage pretreated for 1 to 24 hrs followed by Pseudomonas aeruginosa PAO1 challenge and measured after 6 hrs. It counts as functional, organism-based.
Series [15] has as its system Pseudomonas aeruginosa. The experiment in a line: Anti-inflammatory activity in Pseudomonas aeruginosa PAO1 infected C57Bl/6NCr mouse assessed as reduction in amount of bacteria recovered in airway at 10 mg/kg, po administered via gavage pretreated for 1 to 24 hrs followed by Pseudomonas aeruginosa PAO1 challenge and measured after 6 hrs. The format is functional, organism-based.

Series [16] deals with Pseudomonas aeruginosa. The experiment in a line: Anti-inflammatory activity in Pseudomonas aeruginosa PAO1 infected C57Bl/6NCr mouse assessed as reduction in amount of neutrophils recruited in BAL at 10 mg/kg, po administered via gavage pretreated for 1 to 24 hrs followed by Pseudomonas aeruginosa PAO1 challenge and measured after 6 hrs. The format is functional, organism-based.

Turning to `CCCCCCCCCN1C[C@H](O)[C@@H](O)[C@H](O)[C@H]1CO`, the results for the Activity result with CuFi-1 [1], in the series with CuFi-1 [2] and in the series on CuFi-1 [3] were “Non-Toxic”, “Non-Toxic” and 8%, respectively.
`CCCCCCCCCN1CC(O)C(O)C(O)C1CO` (racemic): the Activity result in the series with CuFi-1 [1] is listed as “Non-Toxic”; with CuFi-1 [2] it was “Non-Toxic”; with CuFi-1 [3] it was 22%. In addition, the IC50 with CuFi-1 [4] was determined as 0.6 nM. Moreover, the Imax with CuFi-1 [5] is 12%.
Take `CCCCN1C[C@H](O)[C@@H](O)[C@H](O)[C@H]1CO`: the Activity result (in the series on CuFi-1 [1]; in the series on CuFi-1 [2]; in [6]) was “Non-Toxic” throughout. In addition, in the series with CuFi-1 [4], the IC50 stood at 2000 nM. Moreover, the Imax in the series on CuFi-1 [5] stood at 50%.
Turning to `OCC1C(O)C(O)C(O)CN1CCCCCOCC12CC3CC(CC(C3)C1)C2` (racemic), the Activity entry is on record as “Non-Toxic” in the series on CuFi-1 [1], “Non-Toxic” with CuFi-1 [2] and 42% in the series on CuFi-1 [3]. In addition, in the series filed under Homo sapiens, the result was Active. In the series with CuFi-1 [4], the IC50 turned out to be 1.84 nM. Besides, the Imax in the series on CuFi-1 [5] is reported as 29%.
Turning to `CCCCN1CC(O)C(O)C(O)C1CO` (racemic), in the series on Pseudomonas aeruginosa [7], the result was inactive. The Activity result in the series with CuFi-1 [1] is recorded as “Non-Toxic”; in the series with CuFi-1 [2], “Non-Toxic”; in the series with CuFi-1 [3], 30%; in series [10], “Non-Toxic”. In addition, the result in the series listed under Homo sapiens, with Pseudomonas aeruginosa [8], in the series with Pseudomonas aeruginosa [9] and in the series with Pseudomonas aeruginosa [11] was Active. Besides, the IC50 with CuFi-1 [4] was 0.95 nM. Further, the Imax in the series on CuFi-1 [5] is on record as 36%.
Consider `CCCCCCCCCN1C[C@@H](O)[C@H](O)[C@@H](O)[C@@H]1CO`, for which the Activity entry is given as “Non-Toxic” in the series on CuFi-1 [1], “Non-Toxic” in the series with CuFi-1 [2] and 16% with CuFi-1 [3].
Regarding `CCCCCCOCCCCCN1C[C@H](O)[C@@H](O)[C@H](O)[C@H]1CO`, the IC50 against Beta-glucosidase was found to be 0.4 nM. For the same molecule, the Imax in series [12] and in [13] was 100% throughout.
Take `CCCCN1C[C@@H](O)[C@H](O)[C@@H](O)[C@@H]1CO`: the outcome in the series on Pseudomonas aeruginosa [14] was inactive. Further, the Activity entry with CuFi-1 [1] was “Non-Toxic”; in the series with CuFi-1 [2], “Non-Toxic”; in the series with CuFi-1 [3], “<=20%”; in series [6], “Non-Toxic”. Besides, the result in the series on Pseudomonas aeruginosa [15] and with Pseudomonas aeruginosa [16] was Active.
With `OC[C@@H]1[C@@H](O)[C@H](O)[C@@H](O)CN1CCCCCOCC12CC3CC(CC(C3)C1)C2`, the Activity entry in the series on CuFi-1 [1] and in the series on CuFi-1 [2] was “Non-Toxic” throughout. Moreover, the IC50 with CuFi-1 [4] was 1.84 nM.
Regarding `CCCCCCOCCCCCN1CC(O)C(O)C(O)C1CO` (racemic), at Beta-glucosidase, the IC50 worked out at 1 nM. In [12], this molecule gave an Imax of 100%.
Turning to `CCCCCCOCCCCCN1C[C@@H](O)[C@H](O)[C@@H](O)[C@@H]1CO`, on Beta-glucosidase, the IC50 was 36700 nM. Besides, the Imax was 100% in [12] and 65% in series [13].
Take `OC[C@H]1[C@H](O)[C@@H](O)[C@H](O)CN1CCCCCOCC12CC3CC(CC(C3)C1)C2`: the Activity entry with CuFi-1 [1] is on record as “Non-Toxic”; with CuFi-1 [2] it was “Non-Toxic”; in the series with CuFi-1 [3], 29%.
